Columns and labels:
male Wistar rats = experiment: Vogel conflict test; assay type: in vivo, rat; conditions: s.c.; for Punished licks (1 shock/20 licks): 3 minutes of test
Procedure: The test is carried out on male Wistar rats (IFFA-CREDO) weighing from 230 to 250 g, which are kept in groups of 4 on sawdust in cages in an animal house, with free access to food and drink, for 5 days before they are used, under the following conditions: temperature (21±1° C.), humidity (60±5%) and a 12 hour diurnal cycle (07:00 to 19:00 hours).
On the Monday following their arrival, the animals are transferred to the experiment room where they stay until Friday, the day of the test. For 4 days, from Monday to Thursday inclusive, the animals have access to drink for only one hour per day (from 09:00 to 10:00 hours).
On the day before the test, the animals are isolated from 15:00 hours in cages, on grills, without either food or drink.
The test is carried out in a transparent plastics cage located in a soundproofed and ventilated enclosure. The cage has a chrome steel floor. The metal tip of the bottle containing the drink enters the cage at a height of 6 cm above the metal floor. The floor and the tip of the bottle are connected by electric cables to an apparatus which records the licks of the animal and controls the administration of electric shocks. The apparatus is so regulated that the animal receives an electric shock (between tip and metal floor) every 20 licks of the tip.
On the day of the test, the animal is given an injection (s.c.) of physiological serum (control) or of the test product 30 minutes before being placed in the test cage. The session begins as soon as the animal has carried out 20 licks and received a first electric shock (duration 0.5 seconds, intensity 0.300 mA). For a period of 3 minutes, the animal receives an electric shock each time it carries out 20 licks.
The results are the numbers of licks and of shocks received by the animal during the 3 minutes of the test.
The numbers of licks and of shocks received by the treated animals are compared with those of the control animals by variance analysis, followed by a Dunnett's test with p<0.05. An anxiolytic product increases the number of licks and of shocks received by the animal compared with the controls. For information only, the average number of licks not punished in the animals which have been made thirsty is 674.9±44.5 (N=7) over 3 minutes.
The effectiveness of a product is expressed by the minimum effective dose (MED), that is to say, the lowest dose producing a significant difference compared with the controls. That dose is 2.5 mg/kg s.c. for the product of Example 1.

[1] = system: Male mice of the NMRI strain; experiment: Marble-burying test in the mouse; assay type: in vivo; conditions: s.c.; inhibition of spontaneous marble-burying, 30 minutes' free exploration
Excerpt: This test allows evaluation of the capacity of pharmacological agents to inhibit the spontaneous marble-burying behaviour of mice, the inhibition being predictive of antidepressant and/or anti-impulsive action. Male mice of the NMRI strain (Iffa-Credo, l'Arbresle, France) weighing from 20 to 25 g on the day of the experiment are placed individually in Macrolon boxes (30×18×19 cm) containing 5 cm of sawdust and covered with a perforated plexiglass plate. Twenty four “tiger's eye” glass marbles are evenly distributed on the sawdust at the periphery of the box. At the end of 30 minutes' free exploration, the animals are removed from the box and the number of buried marbles is counted.

In the case of `O=C(Nc1cccnc1)N1CCc2cc3c(cc21)CC3` [Example 1, N-(3-Pyridyl)-2,3,5,6-tetrahydro-1H-cyclobuta[f]indole1-carboxamide], the “Punished licks (1 shock/20 licks)” value (male Wistar rats; dose 0.63 mg/kg, N=8) was 197.5 ± 59.5, the “Punished licks (1 shock/20 licks)” value (male Wistar rats; dose 2.5 mg/kg, N=8, *p < 0.05) was 560.1 ± 67.0* and the “Punished licks (1 shock/20 licks)” value (male Wistar rats; dose 10.0 mg/kg, N=7, *p < 0.05) was 499.3 ± 95.3*. For the same compound, the “minimum effective dose (MED)” value (male Wistar rats; 30 minutes before test, lowest dose producing a significant difference compared with the controls (p<0.05)) was 2.5 mg/kg and the “MED (minimum effective dose)” value [1] was 2.5 mg/kg.

From patent publication US6743818B2, “Cyclobutaindolecarboxamide compounds” (Les Laboratoires Servier, priority 2000, dated 2004)
